Data published in patent US4873240A, “Method for administering ethanolamine derivatives to livestock” (Beecham Group p.l.c., priority 1985, dated 1989).

What was measured:
[1] = Weight gain and food conversion efficiency of broiler chicken, 30-56 days; type: in vivo, Marshall sexed broiler chicken; settings: 3 ppm in feed
Source text: Marshall sexed broiler chicken, 30 days old, were fed on a basal feed, which was designed as a practical broiler and finisher feed. Additive (see below) was substituted for maize in tis diet. The supplemented diets were fed until the birds were 56 days old.

[2] = Weight gain, food intake and body composition of genetically obese (ob/ob) mice dosed for 28 days; type: in vivo, female C57Bl/6 genetically obese (ob/ob) mice
Experimental: (§1) Remale C57Bl/6 genetically obese (ob/ob) or normal lean mice were fed on a powdered breeders diet and given the compounds either once daily by oral gavage, or by admixture with the diet for 28 days. Fifty parts per million (ppm) in the diet is equivalent to a dose level of about eight to ten )obese mie) or twelve to thirteen (normal mice) milligrams per kilogram body weight per dya. Body lipid content and lean body mass were determined gravimetrically. There were seven or eight mice in each treatment group and results are expressed as a percentage of values for an untreated group of similar size.

[3] = Pup weight and rectal temperature after administration to pregnant rats; type: in vivo, Sprague-Dawley rats; settings: days 2-20 of gestation, mean ± S.E.M.
Experimental: Female Sprague-Dawley rates were mated, fed on powdered rodent diet and given compound P1 as a dietary admixture (150 ppm) from days 2-20 of gestation. Thereafter no further compound was given. Parturition occurred on day 22. The pups were weight 24 hours after birth. 48 hours after birth 7 pups were removed at random from 3 control and 3 treated litters, placed 29° C. and rectal temperature was monitored. Results are expressed as means of the number of values shown in parentheses±S.E.M.

[4] = Weight gain, food intake and body composition of normal lean mice dosed for 28 days; type: in vivo, female C57Bl/6 normal lean mice
Experimental: as §1

With COC(=O)c1ccc(CC(C)NCC(O)c2ccccc2)cc1 (centres unmarked) [Preparation P1, N-[2-(4-carbomethoxyphenyl)-1-methylethyl]-2-hydroxy-2-phenylethanamine] the “Weight gain 30-56 days” value ([1]; female, control 1309) was 1326 g, the “Food conversion efficiency 30-56 days” value ([1]; female, control .329) was “.333” and the “Weight gain 30-56 days” value ([1]; male, control 1644) was 1784 g. For the same molecule, the “Food conversion efficiency 30-56 days” value ([1]; male, control .367) was “.385”, the “Amt. of Lipid” value ([2]; 50 ppm in diet) was 103 % of control values and the “Food Intake” value ([2]; 50 ppm in diet) was 119 % of control values. The Gain/Intake ([2]; 50 ppm in diet) was 168 % of control values, the “Lean Body mass” value ([2]; 50 ppm in diet) was 111 % of control values and the “Weight Gain” value ([2]; 50 ppm in diet) was 200 % of control values. For the same molecule, the “Weight, All pups” value ([3]; 150 ppm in diet of dams, 24 hours after birth, n=52, control 5.3 ± 0.1) was 5.9 ± 0.1 g, the “Weight, Pups monitored for body temperature” value ([3]; 150 ppm in diet of dams, n=7, control 5.0 ± 0.1) was 6.6 ± 0.4 g and the “Drop in rectal temperature after 10 mins @ 29° C.” value ([3]; pups 48 hours after birth, dams 150 ppm in diet, n=7, control 2.76 ± 0.16) was 1.98 ± 0.06. For the same molecule, the “Rectal temperature after 10 mins @ 29° C.” value ([3]; pups 48 hours after birth, dams 150 ppm in diet, n=7, control 29.4 ± 0.4) was 31.2 ± 0.5.
With COC(=O)c1ccc(CC(C)NCC(O)c2ccc(O)c(CO)c2)cc1 [Preparation P2, N-[2-(4-carbomethoxyphenyl)-L-methylethyl]-2-hydroxy-2-(4-hydroxy-3-hydroxymethylphenyl) ethanamine] the “Amt. of Lipid” value ([4]; 75 ppm in diet) was 78 % of control values, the “Food Intake” value ([4]; 75 ppm in diet) was 107 % of control values and the Gain/Intake ([4]; 75 ppm in diet) was 120 % of control values. The “Lean Body mass” value ([4]; 75 ppm in diet) was 107 % of control values, the “Weight Gain” value ([4]; 75 ppm in diet) was 128 % of control values and the “Amt. of Lipid” value ([2]; 10 mg/kg po once daily) was 77 % of control values. The “Food Intake” value ([2]; 10 mg/kg po once daily) was 111 % of control values, the Gain/Intake ([2]; 10 mg/kg po once daily) was 70 % of control values and the “Lean Body mass” value ([2]; 10 mg/kg po once daily) was 113 % of control values. The “Weight Gain” value ([2]; 10 mg/kg po once daily) was 78 % of control values, the “Amt. of Lipid” value ([2]; 36 ppm in diet) was 101 % of control values and the “Food Intake” value ([2]; 36 ppm in diet) was 112 % of control values. For the same molecule, the Gain/Intake ([2]; 36 ppm in diet) was 99 % of control values, the “Lean Body mass” value ([2]; 36 ppm in diet) was 112 % of control values and the “Weight Gain” value ([2]; 36 ppm in diet) was 111 % of control values.
In the case of COC(=O)c1ccc(CC(C)NCC(O)c2ccc(O)c(CO)c2)cc1 (centres unmarked) [Preparation P3], the “Amt. of Lipid” value ([4]; 20 mg/kg po once daily) is reported as 69 % of control values, the Gain/Intake ([4]; 20 mg/kg po once daily) is reported as 90 % of control values and the “Lean Body mass” value ([4]; 20 mg/kg po once daily) is reported as 113 % of control values. The “Weight Gain” value ([4]; 20 mg/kg po once daily) was 171 % of control values.
In the case of COC(=O)COc1ccc(CC(C)NCC(O)c2cccc(Cl)c2)cc1 (centres unmarked) [Preparation P4, N-[2-(4-carbomethoxymethoxyphenyl)-1-methylethl]-2-hydroxy-2-(3-chlorophenyl)ethanamine], the “Amt. of Lipid” value ([2]; 0.46 ppm in diet) is reported as 105 % of control values, the “Food Intake” value ([2]; 0.46 ppm in diet) is reported as 116 % of control values and the Gain/Intake ([2]; 0.46 ppm in diet) is reported as 124 % of control values. For the same molecule, the “Lean Body mass” value ([2]; 0.46 ppm in diet) was 107 % of control values and the “Weight Gain” value ([2]; 0.46 ppm in diet) was 143 % of control values.
With COC(=O)COc1ccc(CC(C)NCC(O)c2cc(Cl)c(N)c(Cl)c2)cc1 (centres unmarked) [Preparation P5, N-[2-(4-carbomethoxymethoxyphenyl)-1-methylethyl]-2-hydroxy-2-(4-amino-3,5-dichlorophenyl)ethanamine] the “Food Intake” value ([4]; 50 ppm in diet) was 108 % of control values, the Gain/Intake ([4]; 50 ppm in diet) was 116 % of control values and the “Lean Body mass” value ([4]; 50 ppm in diet) was 108 % of control values. For the same molecule, the “Weight Gain” value ([4]; 50 ppm in diet) was 125 % of control values.
